From patent US12325697B2 (Nimbus Clio, Inc., priority 2021, dated 2025)

Tests used:
[1] = molecular target: Recombinant human Cbl-b (aa 36-427) (Homo sapiens (Human), UniProt Q13191); test: Cbl-b Biochemical Assay (TR-FRET); details: read-out: TR-FRET hCbl-b IC50
How it was run: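 IC50 from 4-parameter fit of % inhibition (DMSO max, reference-inhibitor min), duplicate ten-point series. Compound preincubated with 6 nM Cbl-b, then Src-Zap70 (1-2.5 nM)/0.5 mM ATP reaction 60 min RT; EDTA quench with labelled UBE2D2-Ub and streptavidin-terbium, 60 min, HTRF at 520 nm.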

[2] = tested on: Jurkat (clone E6-1) cells, NFAT luciferase reporter; test: Jurkat Reporter Assay (NFAT Luciferase); type: cell-based; details: Homo sapiens, anti-CD3 stimulation, 6 hr, read-out: Jurkat NFAT EC50
[3] = molecular target: Recombinant human c-Cbl (aa 47-435) (Homo sapiens (Human), UniProt P22681); test: c-Cbl Biochemical Assay (TR-FRET)
Recombinant human c-Cbl (aa 47-435), sequence (P22681 47-435): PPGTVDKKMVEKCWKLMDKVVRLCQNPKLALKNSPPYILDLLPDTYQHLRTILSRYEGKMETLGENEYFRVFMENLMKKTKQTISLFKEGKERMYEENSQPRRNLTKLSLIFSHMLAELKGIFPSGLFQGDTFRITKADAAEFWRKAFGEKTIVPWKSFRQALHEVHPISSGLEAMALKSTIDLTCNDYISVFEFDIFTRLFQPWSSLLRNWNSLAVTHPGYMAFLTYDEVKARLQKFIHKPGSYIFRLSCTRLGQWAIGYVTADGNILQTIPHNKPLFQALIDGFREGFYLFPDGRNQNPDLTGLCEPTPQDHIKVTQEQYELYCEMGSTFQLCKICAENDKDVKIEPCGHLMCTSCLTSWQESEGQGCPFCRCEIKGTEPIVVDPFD
How it was run: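 TR-FRET binding of UBE2D2-Ub-Bodipy (100 nM) to biotinylated c-Cbl (aa 47-435, 6 nM) via Streptavidin-Tb, measured after c-Cbl activation by Src-Zap70 with 0.5 mM ATP (60-90 min RT, 30 min compound preincubation). Ten-point half-log dilutions, 1% DMSO; IC50 by 4-parameter fit of normalized inhibition.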

Recombinant human Cbl-b (aa 36-427), sequence (Q13191 36-427): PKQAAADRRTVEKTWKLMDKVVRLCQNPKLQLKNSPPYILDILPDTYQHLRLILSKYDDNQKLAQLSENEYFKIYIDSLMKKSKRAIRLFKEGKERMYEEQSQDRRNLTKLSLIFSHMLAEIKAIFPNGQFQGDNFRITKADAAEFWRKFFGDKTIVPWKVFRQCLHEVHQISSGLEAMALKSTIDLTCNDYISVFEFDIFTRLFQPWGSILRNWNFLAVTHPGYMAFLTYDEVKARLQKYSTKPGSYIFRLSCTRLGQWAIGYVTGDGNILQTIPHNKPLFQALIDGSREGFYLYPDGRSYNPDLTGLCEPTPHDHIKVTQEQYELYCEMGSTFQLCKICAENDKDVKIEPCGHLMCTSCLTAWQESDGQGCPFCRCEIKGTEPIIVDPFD

SMILES | IC50 [1] | EC50 [2] | IC50 [3]
Cn1cnnc1-c1ccccc1-c1cc(N2Cc3c(cc(CO)cc3C(F)(F)F)C2=O)nc(N2Cc3c(cc(CO)cc3C(F)(F)F)C2=O)c1 [ACX-2, 6-(Hydroxymethyl)-2-{6-[6-(hydroxymethyl)-1-oxo-4-(trifluoromethyl)-3H-isoindol-2-yl]-4-[2-(4-methyl-1,2,4-triazol-3-yl)phenyl]pyridin-2-yl}-4-(trifluoromethyl)-3H-isoindol-1-one] | 10000 to 50000 nM | 10000 to 50000 nM | 
CCNc1cc(-c2c(-c3nncn3C)cnn2C)cc(N2Cc3c(cc(CNCCOCCOCCOCCNC(=O)CCc4ccc5n4[B-](F)(F)[N+]4=C(c6ccc[nH]6)C=CC4=C5)cc3C(F)(F)F)C2=O)n1 [ACZ-5] | ≤ 200 nM | 10000 to 50000 nM | 
CCNc1cc(-c2c(-c3nncn3C)cnn2C)cc(N2Cc3c(cc(COC4CCN(C)CC4)cc3C(F)(F)F)C2=O)n1 [ADA-2, 2-[6-(Ethylamino)-4-[2-methyl-4-(4-methyl-1,2,4-triazol-3-yl)pyrazol-3-yl]pyridin-2-yl]-6-{[(1-methylpiperidin-4-yl)oxy]methyl}-4-(trifluoromethyl)-3H-isoindol-1-one] |  | 1000 to 10000 nM | 
CCNc1cc(-c2c(-c3nncn3C)cnn2C)cc(N2Cc3c(cc(CNCCOCCOCCOCCNC(=O)CCc4ccc5n4[B-](F)(F)[N+]4=C(C)C=C(C)C4=C5)cc3C(F)(F)F)C2=O)n1 [ADD-2, 4-{2-[(1-{2-[6-(Ethylamino)-4-[2-methyl-4-(4-methyl-1,2,4-triazol-3-yl)pyrazol-3-yl]pyridin-2-yl]-3-oxo-7-(trifluoromethyl)-1H-isoindol-5-yl}-5,8,11-trioxa-2-azatridecan-13-yl)carbamoyl]ethyl}-2,2-difluoro-10,12-dimethyl-1lambda5,3-diaza-2-boratricyclo[7.3.0.0^{3,7}]dodeca-1(12),4,6,8,10-pentaen-1-ylium-2-uide] | 10000 to 50000 nM | 10000 to 50000 nM | 
CCNc1cc(-c2c(-c3nncn3C)cnn2C)cc(N2Cc3c(cc(COc4cnoc4)cc3C(F)(F)F)C2=O)n1 [ADE-2, 2-[6-(Ethylamino)-4-[2-methyl-4-(4-methyl-1,2,4-triazol-3-yl)pyrazol-3-yl]pyridin-2-yl]-6-[(1,2-oxazol-4-yloxy)methyl]-4-(trifluoromethyl)-3H-isoindol-1-one] | ≤ 200 nM | 1000 to 10000 nM | 
Cn1cnnc1-c1cc(C#N)ccc1-c1cccc(N2Cc3c(cc(CO)cc3C(F)(F)F)C2=O)c1 [ADG-3, 3′-[6-(Hydroxymethyl)-1-oxo-4-(trifluoromethyl)-3H-isoindol-2-yl]-2-(4-methyl-1,2,4-triazol-3-yl)-[1,1′-biphenyl]-4-carbonitrile] | ≤ 200 nM | 10000 to 50000 nM | 
C[C@@H](NC1COC1)c1ccc2c(c1)C(=O)N(c1cc(-c3ccc(C#N)cc3-c3nncn3C)cc(C3CC3)n1)C2 [AOC-2] | ≤ 200 nM |  | ≤ 200 nM
C[C@@H](c1ccc2c(c1)C(=O)N(c1cc(-c3ccc(C#N)cc3-c3nncn3C)cc(C3CC3)n1)C2)N1CC2(COC2)C1 [AOD-2, 4-(2-Cyclopropyl-6-{6-[(1S)-1-{2-oxa-6-azaspiro[3.3]heptan-6-yl}ethyl]-1-oxo-3H-isoindol-2-yl}pyridin-4-yl)-3-(4-methyl-1,2,4-triazol-3-yl)benzonitrile] | ≤ 200 nM |  | ≤ 200 nM
C[C@H](c1ccc2c(c1)C(=O)N(c1cc(-c3ccc(C#N)cc3-c3nncn3C)cc(C3CC3)n1)C2)N1CC2(COC2)C1 [AOE-1, 4-(2-Cyclopropyl-6-{6-[(1R)-1-{2-oxa-6-azaspiro[3.3]heptan-6-yl}ethyl]-1-oxo-3H-isoindol-2-yl}pyridin-4-yl)-3-(4-methyl-1,2,4-triazol-3-yl)benzonitrile] | ≤ 200 nM |  | ≤ 200 nM
Cn1cnnc1-c1cc(C#N)ccc1-c1cc(C2CC2)nc(N2Cc3ccc(C(C)(C)NC4CCC4)cc3C2=O)c1 [AOI-1, 4-(2-{6-[2-(Cyclobutylamino)propan-2-yl]-1-oxo-3H-isoindol-2-yl}-6-cyclopropylpyridin-4-yl)-3-(4-methyl-1,2,4-triazol-3-yl)benzonitrile] | ≤ 200 nM |  | ≤ 200 nM
C[C@@H](NCc1ccc2c(c1)C(=O)N(c1cc(-c3ccc(C#N)cc3-c3nncn3C)cc(C3CC3)n1)C2)C1CCC1 [AOJ-2, 4-{2-[6-({[(1R)-1-Cyclobutylethyl]amino}methyl)-1-oxo-3H-isoindol-2-yl]-6-cyclopropylpyridin-4-yl}-3-(4-methyl-1,2,4-triazol-3-yl)benzonitrile] | ≤ 200 nM |  | ≤ 200 nM
C[C@H](NCc1ccc2c(c1)C(=O)N(c1cc(-c3ccc(C#N)cc3-c3nncn3C)cc(C3CC3)n1)C2)C1CCC1 [AOK-2, 4-{2-[6-({[(1S)-1-Cyclobutylethyl]amino}methyl)-1-oxo-3H-isoindol-2-yl]-6-cyclopropylpyridin-4-yl}-3-(4-methyl-1,2,4-triazol-3-yl)benzonitrile] | ≤ 200 nM |  | ≤ 200 nM
Cn1cnnc1-c1cc(C#N)ccc1-c1cc(C2CC2)nc(N2Cc3ccc(CN4CC5(COC5)C4)cc3C2=O)c1 [AOL-1, 4-[2-Cyclopropyl-6-(6-{2-oxa-6-azaspiro[3.3]heptan-6-ylmethyl}-1-oxo-3H-isoindol-2-yl)pyridin-4-yl]-3-(4-methyl-1,2,4-triazol-3-yl)benzonitrile] | ≤ 200 nM |  | ≤ 200 nM
Cn1cnnc1-c1cc(C#N)ccc1-c1cc(C2CC2)nc(N2Cc3ccc(CNC(C)(C)C4CCC4)cc3C2=O)c1 [AOM-2, 4-[2-(6-{[(2-Cyclobutylpropan-2-yl)amino]methyl}-1-oxo-3H-isoindol-2-yl)-6-cyclopropylpyridin-4-yl]-3-(4-methyl-1,2,4-triazol-3-yl)benzonitrile] | ≤ 200 nM |  | ≤ 200 nM
CN(C)C(=O)CN(Cc1ccc2c(c1)C(=O)N(c1cc(-c3ccc(C#N)cc3-c3nncn3C)cc(C3CC3)n1)C2)CC1COC1 [AON-2, 2-{[(2-{4-[4-Cyano-2-(4-methyl-1,2,4-triazol-3-yl)phenyl]-6-cyclopropylpyridin-2-yl}-3-oxo-1H-isoindol-5-yl)methyl](oxetan-3-ylmethyl)amino}-N,N-dimethylacetamide] | ≤ 200 nM |  | ≤ 200 nM
Cn1cnnc1-c1cc(C#N)ccc1-c1cc(C2CC2)nc(N2Cc3ccc(CN4CCOC5(COC5)C4)cc3C2=O)c1 [AOO-2, 4-[2-Cyclopropyl-6-(6-{2,5-dioxa-8-azaspiro[3.5]nonan-8-ylmethyl}-1-oxo-3H-isoindol-2-yl)pyridin-4-yl]-3-(4-methyl-1,2,4-triazol-3-yl)benzonitrile] | ≤ 200 nM |  | ≤ 200 nM
Cn1cnnc1-c1cc(C#N)ccc1-c1cc(C2CC2)nc(N2Cc3ccc(C(C)(C)NCC4CCC4)cc3C2=O)c1 [AOS-2, 4-[2-(6-{2-[(Cyclobutylmethyl)amino]propan-2-yl}-1-oxo-3H-isoindol-2-yl)-6-cyclopropylpyridin-4-yl]-3-(4-methyl-1,2,4-triazol-3-yl)benzonitrile] | ≤ 200 nM |  | ≤ 200 nM
Cn1cnnc1-c1cc(C#N)ccc1-c1cc(C2CC2)nc(N2Cc3c(F)cc(CN4CC[C@@H]5COC[C@H]54)cc3C2=O)c1 [AOU-1, 4-(2-Cyclopropyl-6-(4-fluoro-6-(((3aS,6aS)-hexahydro-1H-furo[3,4-b]pyrrol-1-yl)methyl)-1-oxoisoindolin-2-yl)pyridin-4-yl)-3-(4-methyl-4H-1,2,4-triazol-3-yl)benzonitrile] | ≤ 200 nM |  | ≤ 200 nM
COC[C@H]1CCN1Cc1cc(F)c2c(c1)C(=O)N(c1cc(-c3ccc(C#N)cc3-c3nncn3C)cc(C3CC3)n1)C2 [AOW-2, 4-[2-Cyclopropyl-6-(4-fluoro-6-{[(2R)-2-(methoxymethyl)azetidin-1-yl]methyl}-1-oxo-3H-isoindol-2-yl)pyridin-4-yl]-3-(4-methyl-1,2,4-triazol-3-yl)benzonitrile] | ≤ 200 nM |  | ≤ 200 nM
Cn1cnnc1-c1cc(C#N)ccc1-c1cc(C2CC2)nc(N2Cc3c(cc(CNCC4(O)CCC4)c(F)c3F)C2=O)c1 [AOX-1, 4-{2-Cyclopropyl-6-[4,5-difluoro-6-({[(1-hydroxycyclobutyl)methyl]amino}methyl)-1-oxo-3H-isoindol-2-yl]pyridin-4-yl}-3-(4-methyl-1,2,4-triazol-3-yl)benzonitrile] | ≤ 200 nM |  | ≤ 200 nM
COC[C@@H]1CCCN1Cc1cc(F)c2c(c1)C(=O)N(c1cc(-c3ccc(C#N)cc3-c3nncn3C)cc(C3CC3)n1)C2 [AOY-2, (S)-4-(2-Cyclopropyl-6-(4-fluoro-6-((2-(methoxymethyl)pyrrolidin-1-yl)methyl)-1-oxoisoindolin-2-yl)pyridin-4-yl)-3-(4-methyl-4H-1,2,4-triazol-3-yl)benzonitrile] | ≤ 200 nM |  | ≤ 200 nM
Cn1cnnc1-c1cc(C#N)ccc1-c1cc(C2CC2)nc(N2Cc3c(F)cc(CN4CCC[C@H]4CF)cc3C2=O)c1 [APA-2, 4-[2-Cyclopropyl-6-(4-fluoro-6-{[(2S)-2-(fluoromethyl)pyrrolidin-1-yl]methyl}-1-oxo-3H-isoindol-2-yl)pyridin-4-yl]-3-(4-methyl-1,2,4-triazol-3-yl)benzonitrile] | ≤ 200 nM |  | ≤ 200 nM
COC[C@H]1CCCN1Cc1cc(F)c2c(c1)C(=O)N(c1cc(-c3ccc(C#N)cc3-c3nncn3C)cc(C3CC3)n1)C2 [APB-2, 4-[2-Cyclopropyl-6-(4-fluoro-6-{[(2R)-2-(methoxymethyl)pyrrolidin-1-yl]methyl}-1-oxo-3H-isoindol-2-yl)pyridin-4-yl]-3-(4-methyl-1,2,4-triazol-3-yl)benzonitrile] | ≤ 200 nM |  | ≤ 200 nM
